Patent publication US12539292B2, “BRM targeting compounds and associated methods of use” (Arvinas Operations, Inc., priority 2018, dated 2026)

Target: T1, BRM (Homo sapiens, UniProt P51531)
T1 construct: In-Cell Western Screen of BRM Degradation in SW1573 Cells; endogenous in cells; host or cells: SW1573
Test: In-cell Western screen of BRM degradation in SW1573 cells (Dmax and DC50)
Assay type: cell-based
Details: BRM degradation, SW1573 cells; for DC50: read-out: DC50; for Dmax: tested at the top concentration of between 0.3 and 10 μM, read-out: Dmax (%) (% degraded)
Summary of the method: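 After adhering overnight, cells received compound for 18-20 hours. They were then washed in cold DPBS, fixed with 4% PFA for 20 min and permeabilized for 30 min. Blocking and fluorescent secondary staining followed before imaging.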

T1 sequence (P51531 whole entry): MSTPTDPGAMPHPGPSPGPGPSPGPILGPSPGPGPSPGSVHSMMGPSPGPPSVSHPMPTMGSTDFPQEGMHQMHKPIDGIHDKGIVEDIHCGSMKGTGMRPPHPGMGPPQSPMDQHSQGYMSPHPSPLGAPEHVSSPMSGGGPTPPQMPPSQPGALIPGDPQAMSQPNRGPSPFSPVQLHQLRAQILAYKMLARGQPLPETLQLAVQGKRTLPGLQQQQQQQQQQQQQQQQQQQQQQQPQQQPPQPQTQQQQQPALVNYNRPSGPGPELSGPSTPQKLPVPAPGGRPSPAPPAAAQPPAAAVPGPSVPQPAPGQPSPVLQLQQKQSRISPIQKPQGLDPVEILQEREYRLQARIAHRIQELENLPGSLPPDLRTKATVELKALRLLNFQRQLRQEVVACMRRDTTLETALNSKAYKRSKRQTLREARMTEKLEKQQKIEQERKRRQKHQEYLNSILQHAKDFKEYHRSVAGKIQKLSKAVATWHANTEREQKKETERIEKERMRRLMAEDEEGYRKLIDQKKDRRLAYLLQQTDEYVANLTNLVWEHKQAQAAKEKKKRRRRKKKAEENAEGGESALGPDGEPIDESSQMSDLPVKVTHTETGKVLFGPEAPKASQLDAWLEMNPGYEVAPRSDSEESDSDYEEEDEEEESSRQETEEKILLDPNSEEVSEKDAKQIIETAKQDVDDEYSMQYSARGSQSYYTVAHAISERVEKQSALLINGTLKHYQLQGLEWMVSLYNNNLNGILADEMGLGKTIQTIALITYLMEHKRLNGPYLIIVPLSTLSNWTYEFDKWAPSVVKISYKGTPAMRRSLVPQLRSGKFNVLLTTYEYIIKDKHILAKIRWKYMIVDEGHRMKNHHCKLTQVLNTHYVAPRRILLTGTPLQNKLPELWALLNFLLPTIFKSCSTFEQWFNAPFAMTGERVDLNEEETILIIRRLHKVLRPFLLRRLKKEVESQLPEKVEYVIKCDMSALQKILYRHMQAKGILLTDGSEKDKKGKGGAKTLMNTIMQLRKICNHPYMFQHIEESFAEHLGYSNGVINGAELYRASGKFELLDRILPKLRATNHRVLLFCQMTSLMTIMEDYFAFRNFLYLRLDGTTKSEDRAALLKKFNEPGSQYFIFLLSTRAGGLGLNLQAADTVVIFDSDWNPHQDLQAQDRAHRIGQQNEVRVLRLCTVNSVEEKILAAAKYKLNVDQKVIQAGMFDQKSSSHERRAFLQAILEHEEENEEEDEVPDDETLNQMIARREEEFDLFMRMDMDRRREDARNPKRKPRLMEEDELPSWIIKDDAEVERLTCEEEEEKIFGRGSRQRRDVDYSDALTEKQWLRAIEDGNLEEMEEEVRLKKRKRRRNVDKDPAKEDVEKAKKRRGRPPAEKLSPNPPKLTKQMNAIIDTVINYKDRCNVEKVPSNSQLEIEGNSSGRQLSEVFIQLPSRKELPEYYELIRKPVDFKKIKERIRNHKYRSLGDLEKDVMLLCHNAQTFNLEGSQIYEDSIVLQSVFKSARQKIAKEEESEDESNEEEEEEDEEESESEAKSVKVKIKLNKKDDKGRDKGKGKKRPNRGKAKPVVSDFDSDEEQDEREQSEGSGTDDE

| Compound | DC50 | Dmax |
| --- | --- | --- |
| Cc1ncsc1-c1ccc([C@@H](COCC2CCOCC2)NC(=O)[C@@H]2C[C@@H](O)CN2C(=O)[C@@H](c2cc(OCCN3CCN(CCOc4cc(N5C6CCC5CN(c5cc(-c7ccccc7O)nnc5N)C6)ccn4)CC3)no2)C(C)C)cc1 [compound 273, (2S,4R)-1-((2R)-2-(3-(2-(4-(2-((4-(3-(3-amino-6-(2-hydroxyphenyl)pyridazin-4-yl)-3,8-diazabicyclo[3.2.1]octan-8-yl)pyridin-2-yl)oxy)ethyl)piperazin-1-yl)ethoxy)isoxazol-5-yl)-3-methylbutanoyl)-4-hydroxy-N-((S)-1-(4-(4-methylthiazol-5-yl)phenyl)-2-((tetrahydro-2H-pyran-4-yl)methoxy)ethyl)pyrrolidine-2-carboxamide] | < 2.5 nM | > 75% |
| Cc1cnnn1-c1ccc([C@H](C)NC(=O)[C@@H]2C[C@@H](O)CN2C(=O)[C@H](c2cc(OCCN3CCN(CCOc4cc(N5C6CCC5CN(c5cc(-c7ccccc7O)nnc5N)C6)ccn4)CC3)no2)C(C)C)cc1 [compound 274, (2S,4R)-1-((2S)-2-(3-(2-(4-(2-((4-(3-(3-amino-6-(2-hydroxyphenyl)pyridazin-4-yl)-3,8-diazabicyclo[3.2.1]octan-8-yl)pyridin-2-yl)oxy)ethyl)piperazin-1-yl)ethoxy)isoxazol-5-yl)-3-methylbutanoyl)-4-hydroxy-N-((S)-1-(4-(5-methyl-1H-1,2,3-triazol-1-yl)phenyl)ethyl)pyrrolidine-2-carboxamide] | > 30 nM |  |
| Cc1cnnn1-c1ccc([C@H](C)NC(=O)[C@@H]2C[C@@H](O)CN2C(=O)[C@@H](c2cc(OCCN3CCN(CCOc4cc(N5C6CCC5CN(c5cc(-c7ccccc7O)nnc5N)C6)ccn4)CC3)no2)C(C)C)cc1 [compound 275, (2S,4R)-1-((2R)-2-(3-(2-(4-(2-((4-(3-(3-amino-6-(2-hydroxyphenyl)pyridazin-4-yl)-3,8-diazabicyclo[3.2.1]octan-8-yl)pyridin-2-yl)oxy)ethyl)piperazin-1-yl)ethoxy)isoxazol-5-yl)-3-methylbutanoyl)-4-hydroxy-N-((S)-1-(4-(5-methyl-1H-1,2,3-triazol-1-yl)phenyl)ethyl)pyrrolidine-2-carboxamide] | 10 to 30 nM | > 75% |
| Cc1nccn1-c1ccc([C@H](C)NC(=O)[C@@H]2C[C@@H](O)CN2C(=O)[C@H](c2cc(OC/C=C/c3ccc(O[C@H]4C[C@H](Oc5cc(N6C7CCC6CN(c6cc(-c8ccccc8O)nnc6N)C7)ccn5)C4)cn3)no2)C(C)C)cc1 [compound 276, (2S,4R)-1-((2S)-2-(3-(((E)-3-(5-((1r,3S)-3-((4-(3-(3-amino-6-(2-hydroxyphenyl)pyridazin-4-yl)-3,8-diazabicyclo[3.2.1]octan-8-yl)pyridin-2-yl)oxy)cyclobutoxy)pyridin-2-yl)allyl)oxy)isoxazol-5-yl)-3-methylbutanoyl)-4-hydroxy-N-((S)-1-(4-(2-methyl-1H-imidazol-1-yl)phenyl)ethyl)pyrrolidine-2-carboxamide] | > 30 nM |  |
| Cc1nccn1-c1ccc([C@H](C)NC(=O)[C@@H]2C[C@@H](O)CN2C(=O)[C@@H](c2cc(OC/C=C/c3ccc(O[C@H]4C[C@H](Oc5cc(N6C7CCC6CN(c6cc(-c8ccccc8O)nnc6N)C7)ccn5)C4)cn3)no2)C(C)C)cc1 [compound 277, (2S,4R)-1-((2R)-2-(3-(((E)-3-(5-((1r,3R)-3-((4-(3-(3-amino-6-(2-hydroxyphenyl)pyridazin-4-yl)-3,8-diazabicyclo[3.2.1]octan-8-yl)pyridin-2-yl)oxy)cyclobutoxy)pyridin-2-yl)allyl)oxy)isoxazol-5-yl)-3-methylbutanoyl)-4-hydroxy-N-((S)-1-(4-(2-methyl-1H-imidazol-1-yl)phenyl)ethyl)pyrrolidine-2-carboxamide] | < 2.5 nM | > 75% |
| COc1nc(-c2scnc2C)ccc1[C@H](C)NC(=O)[C@@H]1C[C@@H](O)CN1C(=O)[C@H](c1cc(OCCN2CCC(O[C@H]3C[C@H](Oc4cc(N5C6CCC5CN(c5cc(-c7ccccc7O)nnc5N)C6)ccn4)C3)CC2)no1)C(C)C [compound 278, (2S,4R)-1-((2S)-2-(3-(2-(4-((1r,3S)-3-((4-(3-(3-amino-6-(2-hydroxyphenyl)pyridazin-4-yl)-3,8-diazabicyclo[3.2.1]octan-8-yl)pyridin-2-yl)oxy)cyclobutoxy)piperidin-1-yl)ethoxy)isoxazol-5-yl)-3-methylbutanoyl)-4-hydroxy-N-((S)-1-(2-methoxy-6-(4-methylthiazol-5-yl)pyridin-3-yl)ethyl)pyrrolidine-2-carboxamide] | > 30 nM |  |
| COc1nc(-c2scnc2C)ccc1[C@H](C)NC(=O)[C@@H]1C[C@@H](O)CN1C(=O)[C@@H](c1cc(OCCN2CCC(O[C@H]3C[C@H](Oc4cc(N5C6CCC5CN(c5cc(-c7ccccc7O)nnc5N)C6)ccn4)C3)CC2)no1)C(C)C [compound 279, (2S,4R)-1-((2R)-2-(3-(2-(4-((1r,3R)-3-((4-(3-(3-amino-6-(2-hydroxyphenyl)pyridazin-4-yl)-3,8-diazabicyclo[3.2.1]octan-8-yl)pyridin-2-yl)oxy)cyclobutoxy)piperidin-1-yl)ethoxy)isoxazol-5-yl)-3-methylbutanoyl)-4-hydroxy-N-((S)-1-(2-methoxy-6-(4-methylthiazol-5-yl)pyridin-3-yl)ethyl)pyrrolidine-2-carboxamide] | < 2.5 nM | > 75% |
| Cc1ncsc1-c1ccc([C@H](CN(C)C)NC(=O)[C@@H]2C[C@@H](O)CN2C(=O)[C@H](c2cc(OCCN3CCN(CCOc4cc(N5C6CCC5CN(c5cc(-c7ccccc7O)nnc5N)C6)ccn4)CC3)no2)C(C)C)cc1 [compound 280, (2S,4R)-1-((2S)-2-(3-(2-(4-(2-((4-(3-(3-amino-6-(2-hydroxyphenyl)pyridazin-4-yl)-3,8-diazabicyclo[3.2.1]octan-8-yl)pyridin-2-yl)oxy)ethyl)piperazin-1-yl)ethoxy)isoxazol-5-yl)-3-methylbutanoyl)-N-((R)-2-(dimethylamino)-1-(4-(4-methylthiazol-5-yl)phenyl)ethyl)-4-hydroxypyrrolidine-2-carboxamide] | > 30 nM |  |
| Cc1ncsc1-c1ccc([C@H](CN(C)C)NC(=O)[C@@H]2C[C@@H](O)CN2C(=O)[C@@H](c2cc(OCCN3CCN(CCOc4cc(N5C6CCC5CN(c5cc(-c7ccccc7O)nnc5N)C6)ccn4)CC3)no2)C(C)C)cc1 [compound 281, (2S,4R)-1-((2R)-2-(3-(2-(4-(2-((4-(3-(3-amino-6-(2-hydroxyphenyl)pyridazin-4-yl)-3,8-diazabicyclo[3.2.1]octan-8-yl)pyridin-2-yl)oxy)ethyl)piperazin-1-yl)ethoxy)isoxazol-5-yl)-3-methylbutanoyl)-N-((R)-2-(dimethylamino)-1-(4-(4-methylthiazol-5-yl)phenyl)ethyl)-4-hydroxypyrrolidine-2-carboxamide] | < 2.5 nM | > 75% |
| CC(C)[C@@H](C(=O)N1C[C@H](O)C[C@H]1C(=O)N[C@@H](C)c1ccc(-c2c(Cl)cnn2C)cc1)c1cc(OCCN2CCN(CCOc3cc(N4C5CCC4CN(c4cc(-c6ccccc6O)nnc4N)C5)ccn3)CC2)no1 [compound 283, (2S,4R)-1-((2R)-2-(3-(2-(4-(2-((4-(3-(3-amino-6-(2-hydroxyphenyl)pyridazin-4-yl)-3,8-diazabicyclo[3.2.1]octan-8-yl)pyridin-2-yl)oxy)ethyl)piperazin-1-yl)ethoxy)isoxazol-5-yl)-3-methylbutanoyl)-N-((S)-1-(4-(4-chloro-1-methyl-1H-pyrazol-5-yl)phenyl)ethyl)-4-hydroxypyrrolidine-2-carboxamide] | < 2.5 nM | > 75% |
| CC(C)[C@H](C(=O)N1C[C@H](O)C[C@H]1C(=O)N[C@@H](C)c1ccc(-n2ccnc2CO)cc1)c1cc(OCC#Cc2ccc(O[C@H]3C[C@H](Oc4cc(N5C6CCC5CN(c5cc(-c7ccccc7O)nnc5N)C6)ccn4)C3)cn2)no1 [compound 284, (2S,4R)-1-((2S)-2-(3-((3-(5-((1r,3S)-3-((4-(3-(3-amino-6-(2-hydroxyphenyl)pyridazin-4-yl)-3,8-diazabicyclo[3.2.1]octan-8-yl)pyridin-2-yl)oxy)cyclobutoxy)pyridin-2-yl)prop-2-yn-1-yl)oxy)isoxazol-5-yl)-3-methylbutanoyl)-4-hydroxy-N-((S)-1-(4-(2-(hydroxymethyl)-1H-imidazol-1-yl)phenyl)ethyl)pyrrolidine-2-carboxamide] | 10 to 30 nM | > 75% |
| CC(C)[C@@H](C(=O)N1C[C@H](O)C[C@H]1C(=O)N[C@@H](C)c1ccc(-n2ccnc2CO)cc1)c1cc(OCC#Cc2ccc(O[C@H]3C[C@H](Oc4cc(N5C6CCC5CN(c5cc(-c7ccccc7O)nnc5N)C6)ccn4)C3)cn2)no1 [compound 285, (2S,4R)-1-((2R)-2-(3-((3-(5-((1r,3R)-3-((4-(3-(3-amino-6-(2-hydroxyphenyl)pyridazin-4-yl)-3,8-diazabicyclo[3.2.1]octan-8-yl)pyridin-2-yl)oxy)cyclobutoxy)pyridin-2-yl)prop-2-yn-1-yl)oxy)isoxazol-5-yl)-3-methylbutanoyl)-4-hydroxy-N-((S)-1-(4-(2-(hydroxymethyl)-1H-imidazol-1-yl)phenyl)ethyl)pyrrolidine-2-carboxamide] | < 2.5 nM | > 75% |
| Cc1ncsc1-c1ccc([C@H](C)NC(=O)[C@@H]2C[C@@H](O)CN2C(=O)[C@@H](c2cc(OCC(=O)N3CCC(O[C@H]4C[C@H](Oc5cc(N6C7CCC6CN(c6cc(-c8ccccc8O)nnc6N)C7)ccn5)C4)CC3)no2)C(C)C)cn1 [compound 286, (2S,4R)-1-((2R)-2-(3-(2-(4-((1r,3R)-3-((4-(3-(3-amino-6-(2-hydroxyphenyl)pyridazin-4-yl)-3,8-diazabicyclo[3.2.1]octan-8-yl)pyridin-2-yl)oxy)cyclobutoxy)piperidin-1-yl)-2-oxoethoxy)isoxazol-5-yl)-3-methylbutanoyl)-4-hydroxy-N-((S)-1-(6-(4-methylthiazol-5-yl)pyridin-3-yl)ethyl)pyrrolidine-2-carboxamide] | 2.5 to 10 nM | > 75% |
